1 compound from US7285687B2 (priority 2002, dated 2007) can be followed below.

Data set [1] relates to male ICR mice. The data set is described as follows: Suppression of spontaneous activity (SA) in mice, i.v. Type of data set: in vivo, mouse. Conditions: stimulation, @ 10 mg/kg, Table 6. On the procedure:
(§1) Male ICR mice (25-32 g), obtained from Harlan (Dublin, Va.), were housed in groups of five. All animals were kept in a temperature-controlled (20-22° C.) environment with a 12-hour light-dark cycle (lights on at 7 a.m.). Separate mice were used for testing each drug dose in the in vivo behavioral procedures. Brain tissue for binding studies was obtained from male Sprague-Dawley rats (150-200 g) purchased from Harlan Laboratories (Dublin, Va.).
(§2) Measurement of spontaneous activity in mice occurred in standard activity chambers interfaced with a Digiscan Animal Activity Monitor (Omnitech Electronics, Inc., Columbus, Ohio). A standard tail-flick apparatus and a digital thermometer (Fisher Scientific, Pittsburgh, Pa.) were used to measure antinociception and rectal temperature, respectively.
(§3) Resorcinols were synthesized in our labs (Organix, Inc., Woburn, Mass.) according to the procedure specified below and were suspended in a vehicle of absolute ethanol, Emulphor-620 (Rhone-Poulenc, Inc., Princeton, N.J.), and saline in a ratio of 1:1:18. Drugs were administered to the mice intravenously (i.v.) in the tail vein at a volume of 0.1 ml/10 g.
(§4) Prior to testing in the behavioral procedures, mice were acclimated to the experimental setting (ambient temperature 22-24° C.) overnight. Pre-injection control values were determined for rectal temperature and tail-flick latency (in sec). Five min after i.v. injection with drug or vehicle, mice were placed in individual activity chambers and spontaneous activity was measured for 10 min. […] Tail-flick latency was measured at 20 min post-injection. Maximum latency of 10 sec was used. Antinociception was calculated as percent of maximum possible effect {% MPE=[(test−control latency)/(10-control)]×100}. Control latencies typically ranged from 1.5 to 4.0 sec. At 30 min post-injection, rectal temperature was measured. This value was expressed as the difference between control temperature (before injection) and temperatures following drug administration (° C.). Different mice (n=5-6 per dose) were tested for each dose of each compound. Each mouse was tested in each of the 3 procedures.
(§5) Based on data obtained from numerous previous studies with cannabinoids, maximal cannabinoid effects in each procedure were estimated as follows: 90% inhibition of spontaneous activity, 100% MPE in the tail flick procedure, and −6° C. change in rectal temperature. ED50's were defined as the dose at which half maximal effect occurred. For drugs that produced one or more cannabinoid effect, ED50's were calculated separately using least-squares linear regression on the linear part of the dose-effect curve for each measure in the mouse tetrad, plotted against log10 transformation of the dose. For the purposes of potency comparison, potencies were expressed as μmol/kg.

For data set [2], the system named is male ICR mice. The data set is described as follows: Tail-flick antinociception (TF, % MPE) in mice, i.v. Type of data set: in vivo, mouse. The following applies: @ 10 mg/kg, Table 6. The method, then:
as §1, §2, §3, §4, §5

Data set [3] concerns male ICR mice. The data set is described as follows: Change in rectal temperature (RT) in mice, i.v. Type of data set: in vivo, mouse. Conditions: @ 10 mg/kg, Table 6. On the procedure: as §1, §2, §3, §4, §5
The test system of data set [4] is male ICR mice. The experiment in a line: Lethality noted in the mouse behavioral procedures, i.v. The format is in vivo. Conditions: @ 30 mg/kg, Table 6. The method, then: as §1
Resorcinols were synthesized in our labs (Organix, Inc., Woburn, Mass.) according to the procedure specified below and were suspended in a vehicle of absolute ethanol, Emulphor-620 (Rhone-Poulenc, Inc., Princeton, N.J.), and saline in a ratio of 1:1:18. […]
Prior to testing in the behavioral procedures, mice were acclimated to the experimental setting (ambient temperature 22-24° C.) overnight. Pre-injection control values were determined for rectal temperature and tail-flick latency (in sec). Five min after i.v. injection with drug or vehicle, mice were placed in individual activity chambers and spontaneous activity was measured for 10 min. […] Tail-flick latency was measured at 20 min post-injection. […] Antinociception was calculated as percent of maximum possible effect {% MPE=[(test−control latency)/(10-control)]×100}. […] At 30 min post-injection, rectal temperature was measured. […]

As to `CCCCCCC(C)(C)c1cc(O)c(C2CCN(C)CC2)c(O)c1` [O-1662, 2-(1-Methylpiperidin-4-yl)-5-(1′,1′-dimethylheptyl)-resorcinol], the “S.A. % effect at dose (stim)” value in the data set with male ICR mice [1] is given as 77% stim@ 10. For the same compound, the “T.F. % effect at dose” value in the data set with male ICR mice [2] was 7 @ 10%. In the data set on male ICR mice [3], the “R.T. effect at dose” value came out at 1 °C. The Lethality at dose result in the data set on male ICR mice [4] is “Lethal”.
